The source of these data is patent US4594339A, “Anti-herpes virus compositions containing 5-substituted 1-2'(deoxy-2-'-substituted-β-d-arabinofuranosyl)pyrimedene nucleosides” (priority 1984, dated 1986).

One data set concerns HSV-1 strain 2931. In words: In vivo HSV-1 infection of A/J mice. Conditions: for mice that survived the 21 day experiment: starting 24 hours after inoculation, intraperitoneal. On the procedure: (§1) The effective doses for 1-(2-deoxy-2-fluoro-β-D-arabinofuranosyl)-5-iodocytosine are given below. 1-(2-deoxy-2-fluoro-β-D-arabinofuranosyl)-5-iodocytosine is diluted in physiological saline, filter sterilized, and inoculated. This compound is readily soluble at concentrations of 25 mg/ml in saline. In mouse studies, the drug is inoculated by the intraperitoneal route.
1-(2-deoxy-2-fluoro-β-D-arabinofuranosyl)-5-iodocytosine was also shown to be active in vivo. A/J mice were inoculated with approximately 50 LD50 of HSV-1 strain 2931 intraperitoneally and then treated with 1-(2-deoxy-2-fluoro-β-D-arabinofuranosyl)-5-iodocytosine starting 24 hours later. 1-(2-deoxy-2-fluoro-β-D-arabinofuranosyl)-5-iodocytosinewas given at 10 and 1 mg/kg/da for 5 days. Untreated mice died 8 days post inoculation. Five of 10 mice treated with 10 mg/kg/day survived the 21 day experiment. Two of 10 treated with 1 mg/kg/da survival the 21 day experiment and the remainder died an average of 10 days after inoculation.

Data set [1] in a line: Toxicity to normal human lymphoblastoid cells. It is filed as cell-based. Conditions: read-out: concentration up to which not toxic to normal human lymphoblastoid cells. On the procedure:
Since 1-(2-deoxy-2-fluoro-β-D-arabinofuranosyl)-5-iodocytosine was not toxic to normal human lymphoblastoid cells at concentrations of up to 10 μM, the compound is believed to affect tumor cells at concentrations 1/100th those needed to suppress normal cell replication.

A further data set relates to turkey herpesvirus. In words: In vivo test on avian (turkey) herpesvirus in day-old chicks. Conditions: 2.5 mg FIAC per 50 g chick at intervals. The procedure: In vivo tests were run to determine the effect of FIAC on avian (turkey) herpesvirus. To this end, day-old chicks were infected with turkey herpesvirus and treated at intervals with 2.5 mg FIAC per 50 g chick.

The subject of data set [2] is Herpes Simplex Virus type 1. In words: Inhibition of Herpes Simplex Virus type 1 replication. It is filed as cell-based. The procedure:
(§2) Compounds of the invention show anti-viral and anti-tumor activity. 1-(2-Deoxy-2-fluoro-β-D-arabinofuranosyl)-5-iodocytosine inhibits Herpes Simplex Virus type 1 and type 2 replication. HFEM, Patton, 2931, and F-strain HSV-1 and 333 and G-strain HSV-2 are effected at concentrations of 1-(2-deoxy-2-fluoro-β-D-arabinofuranosyl)-5-iodocytosine 0.01μM (approximately 0.004 μg/ml).
as §1

For a further data set, the system named is herpes zoster virus. Kind of data set: Anti-viral activity against herpes zoster virus. It is filed as cell-based.
The subject of data set [3] is viral versus the cellular enzymes (TK and DNA polymerase). In words: Direct testing of interaction with the viral versus the cellular enzymes. It is filed as biochemical. Conditions: FIAC or its triphosphate.
For data set [4], the system named is Herpes Simplex Virus type 2. In words: Inhibition of Herpes Simplex Virus type 2 replication. It is filed as cell-based. The procedure:
as §2, §1

The test system of data set [5] is cytomegalovirus (CMV strain AD 169). Kind of data set: Activity against cytomegalovirus (plaque formation on WI-38 cells). It is filed as cell-based.
The test system of data set [6] is herpes simplex virus-type 1 DNA. In words: Inhibition of replication of HSV-1 DNA versus cellular DNA in the same infected cells. It is filed as cell-based. Conditions: viral vs cellular DNA in the same infected cells.
The subject of data set [7] is herpes simplex virus (HSV). Conditions: cited from earlier work.
In a further data set the test system is uninfected cells. Conditions: compared with 5-iodo (or 5-bromo)-2'-deoxyuridine; cited from earlier work.
A further data set concerns L5178Y. In words: Cytotoxicity, 50% inhibition of growth of L5178Y cells in vitro. It is filed as cell-based. Conditions: Mus musculus, 96 hrs. incubation at 37° C., read-out: Cytoxicity ID50. On the procedure:
Concentration required for 50% inhibition of growth of cells in vitro
after 96 hrs. incubation at 37° C.

The mark [8] stands for this setting: series of herpes simplex virus-types 1 and 2.

Structures are written as SMILES. In brackets after ≈: the same amount, converted by molar mass. Where only a bound is given, the exact number is not on record here.

With `Nc1nc(=O)n([C@@H]2O[C@H](CO)[C@@H](O)[C@@H]2F)cc1I` [1-(2-deoxy-2-fluoro-β-D-arabinofuranosyl)-5-iodocytosine], the figures for the “mice that survived the 21 day experiment” value with HSV-1 strain 2931 (1 mg/kg/da for 5 days) and in the data set on HSV-1 strain 2931 (10 mg/kg/day for 5 days) were “Two of 10” and “Five of 10”, respectively. Besides, in the data set on HSV-1 strain 2931 (1 mg/kg/da for 5 days, untreated mice died 8 days post inoculation), the “average time of death after inoculation (remainder)” value is recorded as 10 days. Also, in data set [1], the MNTC was > 10 µM. Besides, in the data set on turkey herpesvirus, the “effect on virus induced leukopenia / inhibition of the virus” value was “brought the virus induced leukopenia back to the levels of the control uninfected chicks and thus inhibited the virus”. In addition, the minimal effective concentration in data set [2] (Human alphaherpesvirus 1, HFEM, Patton, 2931, and F-strain HSV-1, read-out: concentration at which HSV-1 strains are effected) is ~0.004 µg/mL; in data set [4] (Human alphaherpesvirus 2, 333 and G-strain HSV-2, read-out: concentration at which HSV-2 strains are effected), ~0.004 µg/mL. Further, the anti-viral activity result (in data set [2] (setting [8]); in the data set with herpes zoster virus; in data set [4] (setting [8])) was “impressive anti-viral activity” throughout. In addition, the “selectivity for viral versus cellular enzymes” value in data set [3] was “selectivity was demonstrated”. In addition, in data set [5], the “sensitivity of cytomegalovirus to anti-viral effect” value is “sensitive”. Also, the “selective inhibition of replication of viral DNA” value in data set [6] is “selectively inhibit the replication of herpes simplex virus-type 1 DNA but not cellular DNA”.

In the case of `Nc1nc(=O)n([C@H]2C[C@H](O)[C@@H](CO)O2)cc1Br` [5-Bromo-2'-deoxycytidine], in data set [7], the “inhibition of HSV replication” value is on record as “as effectively as their corresponding deoxyuridine analogs”. In the data set on uninfected cells, the “toxicity to uninfected cells” value was “less toxic to uninfected cells”.

As to `Nc1nc(=O)n([C@H]2C[C@H](O)[C@@H](CO)O2)cc1I` [5-iodo-2'-deoxycytidine], the “inhibition of HSV replication” value in data set [7] is “as effectively as their corresponding deoxyuridine analogs”. In addition, the “toxicity to uninfected cells” value in the data set on uninfected cells is reported as “less toxic to uninfected cells”.

With `Nc1ccn([C@@H]2O[C@H](CO)[C@@H](O)[C@@H]2F)c(=O)n1` [IVa, 1-(2-deoxy-2-fluoro-β-D-arabinofuranosyl)cytosine, reference compound], the IC50 in the data set on L5178Y worked out at 0.05 µg/mL (≈ 0.204 µM).

In the case of `Nc1nc(=O)n([C@@H]2O[C@H](CO)[C@@H](O)[C@@H]2F)cc1F` [IVb, 1-(2-deoxy-2-fluoro-β-D-arabinofuranosyl)-5-fluorocytosine], the IC50 in the data set with L5178Y came to 0.5 µg/mL (≈ 1.9 µM).

For `Nc1nc(=O)n([C@@H]2O[C@H](CO)[C@@H](O)[C@@H]2F)cc1Cl` [IVc, 1-(2-deoxy-2-fluoro-β-D-arabinofuranosyl)-5-chlorocytosine], the IC50 in the data set with L5178Y came out at 1.4 µg/mL (≈ 5.01 µM).

`Nc1nc(=O)n([C@@H]2O[C@H](CO)[C@@H](O)[C@@H]2F)cc1Br` [IVd, 1-(2-deoxy-2-fluoro-β-D-arabinofuranosyl)-5-bromocytosine]: the IC50 in the data set with L5178Y is ~10 µg/mL (≈ 30.9 µM).

Regarding `Cl.Nc1nc(=O)n([C@@H]2O[C@H](CO)[C@@H](O)[C@@H]2F)cc1I` [IVe, 1-(2-Deoxy-2-fluoro-β-D-arabinofuranosyl)-5-iodocytosine hydrochloride], in the data set with L5178Y, the IC50 amounted to 48 µg/mL.

With `O=c1ccn([C@@H]2O[C@H](CO)[C@@H](O)[C@@H]2F)c(=O)[nH]1` [Va], in the data set on L5178Y, the IC50 is > 10 µg/mL.

For the compound `O=c1[nH]c(=O)n([C@@H]2O[C@H](CO)[C@@H](O)[C@@H]2F)cc1F` [Vb, 1-(2-deoxy-2-fluoro-β-D-arabinofuranosyl)-5-fluorouracil], the IC50 in the data set on L5178Y turned out to be 1 µg/mL (≈ 3.79 µM).

`O=c1[nH]c(=O)n([C@@H]2O[C@H](CO)[C@@H](O)[C@@H]2F)cc1Cl` [Vc, 1-(2-deoxy-2-fluoro-β-D-arabinofuranosyl)-5-chlorouracil]: the IC50 with L5178Y is 1.4 µg/mL (≈ 4.99 µM).

With `O=c1[nH]c(=O)n([C@@H]2O[C@H](CO)[C@@H](O)[C@@H]2F)cc1Br` [Vd, 1-(2-deoxy-2-fluoro-β-D-arabinofuranosyl)-5-bromouracil], the IC50 with L5178Y is 0.9 µg/mL (≈ 2.77 µM).

On to `O=c1[nH]c(=O)n([C@@H]2O[C@H](CO)[C@@H](O)[C@@H]2F)cc1I` [Ve, 1-(2-deoxy-2-fluoro-β-D-arabinofuranosyl)-5-iodouracil], for which, in the data set with L5178Y, the IC50 was determined as 0.9 µg/mL (≈ 2.42 µM).

As to `Cc1cn([C@@H]2O[C@H](CO)[C@@H](O)[C@@H]2F)c(=O)[nH]c1=O` [Vf, 1-(2-deoxy-2-fluoro-β-D-arabinofuranosyl)thymine], the “sensitivity of cytomegalovirus to anti-viral effect” value in data set [5] was “sensitive”.
